Measurements taken from US20160075682A1, “INHIBITORS OF NICOTINAMIDE PHOSPHORIBOSYLTRANSFERASE, COMPOSITIONS, PRODUCTS AND USES THEREOF” (UNIVERSITÀ DEGLI STUDI DEL PIEMONTE ORIENTALE "AMEDEO …, priority 2013, published 2016).

What was measured:
[1] = Metabolites generated from hydrolyses in RLM or HLM incubations (LC-ESI-MS); type: in vitro ADME, rat, human; settings: RLM or HLM incubation, 60 minutes at 37° C.
Experimental: (§1) Male Wistar rat liver microsomes (RLM), (protein concentration: 25 mg/ml determined using the Omura and Sato method, total P450: 0.64 nmol/mg protein) were used throughout this study and prepared using an internal protocol. The cryopreserved pooled human liver microsomes (HLM), (pooled mixed sex, ten individual donors, protein concentration: 20 mg/ml, total P450: 0.36 nmol/mg) were purchased from BD Gentest™ (Woburn, Mass.) and used throughout this study.
(§2) The standard incubation mixture (1 ml final volume), was carried out in a 50 mM TRIS (Tris[hydroxymethyl]aminomethane) buffer (pH 7.4) containing 10 μl of acetonitrile (1% of total volume), and 50 μM substrate compounds. After pre-equilibration of the mixture, an appropriate volume of RLM or HLM suspension was added to give a final protein concentration of 1.0 mg/mL. The mixture was shaken for 60 minutes at 37° C. Control incubations were carried out without microsomes. Each incubation was stopped by addition of 1 ml ice-cold acetonitrile, vortexed and centrifuged at 11,000 r.p.m. for 5 min. The supernatants were analysed by LC-DAD-UV and LC-ESI-MS systems to determine the metabolic stability (% substrate residue) and the structure of metabolites respectively (Table 1).
(§3) A Shimadzu HPLC system (Shimadzu, Kyoto, Japan), consisting of two LC-10AD Vp module pumps, an SLC-10A Vp system controller, an SIL-10AD Vp autosampler, and a DGU-14-A on-line degasser were used for the analysis. Chromatographic separation was performed on a Phenomenex Luna C18(2) 150×4.6 mm (5 μm) (Phenomenex srl, Castel Bolognese, Italy) as a stationary phase protected by a C18 SecurityGuard (Phenomenex srl, Castel Bolognese, Italy). The SPD-M10Avp photodiode array detector was used to detect the analytes. LC-Solution 1.24 software was used to process the chromatograms. Aliquots (20 μL) of supernatants obtained from incubations were injected onto the HPLC system and eluted with a mobile phase (flow rate 1.0 mL/min) consisting of a A: 0.5% formic acid solution, B: acetonitrile/methanol 8:2. A Thermo Finningan LCQ Deca XP plus system equipped with a quaternary pump, a Surveyor AS autosampler, a Surveyor photodiode array detector and a vacuum degasser was used for LC/MS analyses (Thermo Electron Corporation, Waltham, Mass.). All the chromatographic separations were performed on a Phenomenex Luna C18(2)150×2 mm (4 μm) (kept at a 35° C.) as a stationary phase protected by a C18 SecurityGuard (Phenomenex srl, Castel Bolognese, Italy). Aliquots (2.0 μl) of supernatants obtained from incubations were injected onto the system and eluted with a mobile phase (flow rate 0.2 ml/min) consisting of a A: 0.2% formic acid solution, B: acetonitrile/methanol 8:2. The eluate was injected into the electrospray ion source (ESI) and MS and MS^n spectra were acquired and processed using Xcalibur® software. The operating conditions on the ion trap mass spectrometer were as follows: Positive mode, spray voltage, 5.30 kV; source current, 80 μA; capillary temperature, 350° C.; capillary voltage, 21.00 V; tube lens offset, 15.00 V; multipole 1 offset, −5.75 V; multipole 2 offset, −9.00 V; sheath gas flow (N2), 55 Auxiliary Units.

[2] = Microsomal stability with rat liver microsomes; type: in vitro ADME, Male Wistar rat; settings: 50 μM substrate, 1.0 mg/mL protein, 60 minutes at 37° C., pH 7.4
Experimental: as §1, §2, §3

[3] = Microsomal stability with human liver microsomes; type: in vitro ADME; settings: 50 μM substrate, 1.0 mg/mL protein, 60 minutes at 37° C., pH 7.4
Experimental: as §1, §2, §3

[4] = tested on: spinal cord injury in male adult CD1 mice; assay: Spinal cord injury by clip compression, motor function; type: in vivo; settings: i.p. one and 6 hours post injury
Experimental: Male adult CD1 mice (25-30 g, Harlan Nossan, Milan, Italy) were used for all studies. Mice were housed in individual cages (5 for each group) and maintained under 12:12 light-dark cycle at 21±1° C. and 50±5% humidity.
Spinal cord injury (SCI) was induced in male adult mice by the clip compression technique (Genovese et al. J. Pharmacol. Exp. Ther. 2008a, 325, 100-14). SHAM-operated animals were taken as control. Drugs were given i.p. one and 6 hours post injury. Animal care was in compliance with Italian regulations on protection of animals used for experimental and other scientific purpose (D.M. 116192) and with the EEC regulations (O.J. of E.C. L 358/1 Dec. 18, 1986). Animals were sacrificed at post-injury (at least five animals/experimental group were analysed).
The motor function of mice subjected to SCI was assessed once a day for 7 days after injury.
The evaluations were made by two blind observers for all analyzed groups.
Briefly, the BMS is a nine-point scale that pro vides a gross indication of locomotor ability and determines the phases of locomotor recovery and features of locomotion. The BMS score was determined for ten mice in each group. Spinal cord tissues were taken at 24 hours after trauma. Tissue was used for histological grading of the damage or for immunocytochemistry with inflammation, cell death or autophagy markers.
As previously described, the spinal cord of male adult CD1 mice was injured by the clip compression technique, compound of formula (I) was administered and the motor function was assessed.

[5] = tested on: Dextran-induced colitis in C57/BJ6 mice; assay: Experimental colitis induced by dextran sulfate sodium (DSS); type: in vivo; settings: i.p., doses of between 20 mg/Kg and 500 mg/Kg
Experimental: Animal work was authorized by the local ethical committee for animal studies (Università del Piemonte Orientale). Colitis was induced in C57/BJ6 mice (Harlan Nossan, Milan, Italy) by addition of DSS (2%) to their daily drinking water for 7 days followed by a 3-day recovery period without DSS. The severity of colitis was assessed using these set of criteria: (1) clinical index (daily changes in body weight; diarrhea and rectal bleeding); (2) macroscopic evidence of colitis (shortening of colon length). On day 10 of the experiment, animals were sacrificed. Treatments were performed with either solvent alone or drugs once a day for the entire duration of the experiments from day 1 to day 7. The colon lengths were measured and colon tissues were harvested for biochemical measurements, histopathological assessment and scoring. (Tang Y, Preuss F, Turek F W, Jakate S, Keshavarzian A. Sleep deprivation worsens inflammation and delays recovery in a mouse model of colitis. Sleep Med. 2009 June; 10(6):597-603).
As previously described, the colon of DNBS- or dextran treated animals was removed after the induction of colitis. Compounds of formula (I) were administered intraperitoneally (i.p.).

| Compound | Metabolites generated from hydrolyses [1] | RLM stability % substrate residue (area peak) [2] [%] | HLM stability % substrate residue (area peak) [3] [%] | motor recovery [4] | protection from injury [4] | protection from Dextran-induced colitis as assessed by the macroscopic damage score [5] |
| --- | --- | --- | --- | --- | --- | --- |
| c1ccc(-c2ccccc2OCCCCCCn2cc(-c3cccnc3)nn2)cc1 [3-(1-(6-([1,1′-biphenyl]-2-yloxy)hexyl)-1H-1,2,3-triazol-4-yl)pyridine] | no | >98 | >96 | partial motor recovery | partially protect from injury | able to protect |
| O=C(NCCCCCCCn1cc(-c2cccnc2)nn1)c1ccccc1-c1ccccc1 [N-(7-(4-(pyridin-3-yl)-1H-1,2,3-triazol-1-yl)heptyl)-[1,1′-biphenyl]-2-carboxamide] | no | >99 | >99 | partial motor recovery | partially protect from injury | able to protect |
